Source: PMC8485799, “Synthesis and Antiprotozoal Profile of 3,4,5‐Trisubstituted Isoxazoles” (ChemistryOpen, 2021)

Tests used:
[1] = test system: promastigote forms of Leishmania amazonensis (WHOM/BR/75/JOSEFA strain); assay: Antiproliferative assay (XTT), promastigote forms, 72 h; assay type: cell-based; settings: promastigote form, 72 h, XTT; read-out: L. amazonensis IC50
In short: (§1)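 Parasites at 1×10^6 mL^−1 with compound (DMSO stock diluted in medium): L. amazonensis promastigotes in Warren medium + 10% FBS at 25 °C for 72 h, T. cruzi epimastigotes in LIT medium + 10% FBS at 28 °C for 96 h. Viability by XTT/PMS for 4 h, absorbance at 450 nm. IC50 from % viable versus control.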

[2] = test system: epimastigote forms of Trypanosoma cruzi (Y strain); assay: Antiproliferative assay (XTT), epimastigote forms, 96 h; assay type: cell-based; settings: epimastigote form, 96 h, XTT; read-out: T. cruzi IC50
In short: as §1

fibroblast line (L929) = assay: Cytotoxicity assay in mammalian cells (MTT), fibroblasts, 72 h; assay type: cell-based
In short: (§2)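 Cells pre-grown 24 h to confluence (L929 2.5×10^5, J774 A1 5×10^5 cells.mL^−1), then exposed to compound dilutions at 37 °C, 5 % CO2: L929 in DMEM/10 % FBS for 72 h, J774 A1 in RPMI‐1640/10 % FBS for 48 h. MTT (2 mg.mL^−1, 4 h), formazan read at […]; CC50 from viability versus untreated controls.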

macrophages (J774 A1) = assay: Cytotoxicity assay in mammalian cells (MTT), macrophages, 48 h; assay type: cell-based
In short: as §2

[3] = test system: both forms of L. amazonensis; design: method as in PMID 27597410; settings: cited from earlier work

Row | IC50 [2] [µM] | Structure (SMILES) | IC50 [1] [µM] | CC50 (fibroblast line (L929)) [µM] | CC50 (macrophages (J774 A1)) [µM] | Activity against both forms of L. amazonensis [3]
1 | 54.2 ± 3 | CCOC(=O)c1noc(-c2ccc([N+](=O)[O-])cc2)c1CNc1ccccc1 [2 aa, 3‐Carboxyethyl‐4‐(phenyl)aminomethyl‐5‐(4‐nitrophenyl)isoxazole] | 34.8 ± 1.7 | 270 ± 8.9 | 202 ± 6.5 | 
2 |  | O=C(N/N=C/c1cccs1)c1nn(-c2ccccc2)c(=O)c2c1cnn2-c1ccccc1 [IV] |  |  |  | good activity values
3 |  | O=C(N/N=C/c1ccc(-c2cccs2)s1)c1nn(-c2ccccc2)c(=O)c2c1cnn2-c1ccccc1 [V] |  |  |  | good activity values
